# Source: patent US20230323369A1, “SCREENING MODEL AND METHOD FOR HBV CCCDNA-TARGETING DRUG” (priority 2020, published 2023)
# Counter-ions that a name gives are not always drawn.
# Experiments:
# [1] = test system: HBV rcccDNA; assay: Compound screening in G2-Rccc1a reporter cells (HiBiT in supernatant, Adv-Cre); type: cell-based, hepatitis B virus; conditions: 1 µM, 4 days of compound treatment, among 189 compounds
# Method: (§1) Detection of HiBiT: Nano Glo HiBiT Extracellular Detection System (Cat. No. N2421) of Promega Corporation was used for HiBiT detection, and the detection steps were carried out according to the kit instructions.
# (§2) The reporter model prepared in Example 1 comprised an HBV variant integrated with 3 repeats of HiBiT sequence. The mRNA transcribed directly from the HBV variant as a template lacked the initiation codon for HiBiT expression, and could not translate the protein attached to the HiBiT tag. Only after the pgRNA transcribed from the HBV variant was reversely transcribed to form cccDNA, the mRNA transcribed from cccDNA as a template could translate the protein attached to the HiBiT tag, so the expression level of HiBiT could be used to indicate the formation of HBV cccDNA. In the reporter model prepared in Example 2, the HiBiT sequence was inserted in the middle of the HBV core sequence, the N-terminus sequence and C-terminus sequence of the core were respectively attached to the C-terminus and N-terminus of the HBV replicon, and loxP sequences were ligated to both ends of the HBV replicon, so that in the absence of Cre recombinase expression, the HiBiT tag lacked a promoter and could not be expressed; but with the expression of Cre recombinase, it could mediate the recombination of double-stranded DNA, so that the linear HBV genome DNA formed a closed circular DNA, and after the circular DNA was formed, the HiBiT tag could use the endogenous promoter of HBV to initiate the expression of the protein attached to the HiBiT tag, so the signal of the HiBiT tag could be used to indicate the formation of recombinant HBV cccDNA, i.e., HBV rcccDNA.
# [2] = test system: HBV; assay: HepG2-hNTCP-2B1 HBV infection model; type: cell-based, hepatitis B virus; conditions: for effect on intracellular cccDNA: HepG2-hNTCP-2B1, after 8 days of infection
# Source text: Detection of HBsAg/HBeAg: The detection procedures of hepatitis B surface antigen (chemiluminescence method CLEIA, product standard number: YZB/Guo 0346-2014) and e antigen (enzyme-linked immunosorbent assay ELISA, product standard number: YZB/Guo 0216-2013) were both carried out according to the detection methods of the kits of Beijing Wantai Company.
# (§3) Detection of HBV cccDNA: The modified Hirt method was used for HBV cccDNA extraction, with Tiangen Plasmid Mini Kit. The lysis buffers involved were Buffer I (50 mM Tris, 10 mM EDTA, pH 7.5), Buffer II (1.2 % SDS), Buffer III (3 M CsCl, 1 M potassium acetate, 0.67 M acetic acid), which were used to replace P1, P2 and P3 in the Tiangen Plasmid Mini Kit respectively. The extraction steps and methods were performed by referring to the plasmid extraction method of the kit. The instrument used is Roche’s LightCycler® 96. HBV cccDNA and mitochondrial DNA (mtDNA) were quantified respectively, and the relative values of HBV cccDNA and mtDNA were calculated.
# We further verified the functions of these 6 compounds in the HepG2-hNTCP-2B1 infection model. HepG2-hNTCP-2B1 was the single clone 2B1 selected for the highest susceptibility to HBV which is made by overexpressing hNTCP in HepG2 cells. In the evaluation by this model, the cells were firstly infected with HBV virus, washed with PBS to remove the residual virus on the next day, different compounds were added after 2 days, and then the cell supernatant was collected and fresh medium was replaced every 2 days, the viral antigen in the cell supernatant was detected, the cells were lysed after 8 days of infection, the intracellular HBV cccDNA was detected, and the evaluation results were shown in FIG. 7. […] The functions of these five compounds were verified in the HepG2-hNTCP-2B1 infection model, and the evaluation strategy was the same as that of the aforementioned inhibitor.
# [3] = test system: HBV cccDNA; assay: Compound screening in RG-Hibit16 reporter cells (HiBiT in supernatant); type: cell-based, hepatitis B virus; conditions: 1 µM, 4 days of compound treatment, among 189 compounds
# Method: as §1, §2
# [4] = test system: RG-Hibit16 cells; assay: CCK8 cytotoxicity in RG-Hibit16 cells; conditions: 1 µM, 4 days
# Method: (§4) In this example, the reporter model of Example 1 (HepaRG-Hibit16 integrated with Hibit16 constructed based on HepaRG cells) and the reporter model of Example 2 (HepG2-Rccc1a integrated with Rccc1a constructed based on HepG2) were investigated for screening cccDNA inhibitors. These two cells were used to evaluate the potential of 189 drugs to inhibit cccDNA, including clinical drugs for different diseases or drugs in the clinical research stage. The screening work was carried out in a 96-well cell culture plate, RG-Hibit16 cells were plated at a cell density of 15,000/well, and G2-Rcccla cells were plated at a cell density of 35,000/well. RG-Hibit16 cells were treated with drugs 1 week after plating. For RG-Hibit16, different compounds were added for treatment when Dox was added to induce virus expression; the next day after G2-Rccc1a cells were plated, they were firstly infected with adenovirus Adv-Cre to express Cre recombinase protein, and different compounds were added 2 days later for treatment, and all compounds were diluted to 1 µM at the final concentration, 200 µL per well; new medium was replaced every 2 days, the expression of HiBiT in the cell supernatant was detected after 4 days of compound treatment, and CCK8 detection reagent was added at a ratio of 10:1 to detect the cytotoxicity of the compounds.
# [5] = test system: G2-Rccc1a cells; assay: CCK8 cytotoxicity in G2-Rccc1a cells; conditions: 1 µM, 4 days
# Method: as §4
# [6] = test system: HBV cccDNA; assay: HepaRG-Hibit16 reporter cells, evaluation of HBV inhibitors (Doxycycline induction); type: cell-based, hepatitis B virus; conditions: for formation of cccDNA: Doxycycline-induced, cell lysate
# Method: as §1, §3
# HepaRG-Hibit16 cells were obtained by transfecting HepaRG cells with Hibit16 plasmid and PiggyBac transposase, integrating the HBV variant sequence (Hibit16) and selection markers into the genome of the cells, and screened by puromycin resistance and red fluorescent marker; Doxycycline could activate TRE3G promoter to initiate the expression of iRFP670, as well as the transcription and replication of HBV, thereby generating HiBiT, as shown in FIG. 4A. To evaluate the function of HBV inhibitors in the cells, the cells were first plated, and Doxycycline was added to induce viral transcription and replication while different HBV inhibitors were added for intervention. The cell supernatant was collected every 2 days, the medium was replaced, and the HiBiT signal, HBsAg, HBeAg in the cell supernatant, and the HBV DNA and HBV cccDNA in the cell lysate were detected, and the responses of the cells to HBV inhibitors were shown in FIGS. 4B-F. Tenofovir (tenofovir disoproxil fumarate, TDF) is a nucleotide reverse transcriptase inhibitor, and Morphothiadin (abbreviation: Mor) is an assembly regulator of core particles, which are already in the clinical Phase II/III evaluation stage, and both can inhibit the formation of cccDNA.
# [7] = HepG2-hNTCP-2B1, cell supernatant
smiles,measurement,setting,value
Nc1nc(Cl)nc2c1ncn2[C@H]1C[C@H](O)[C@@H](CO)O1 [Cladribine],expression level of HiBiT (surrogate for HBV rcccDNA),[1],up-regulated effects
same,effect on intracellular cccDNA,[2],up-regulate
same,effect on HBeAg,[2]; [7],weak promotion effect
same,expression level of HBsAg,[2]; [7],significantly up-regulate
same,expression level of HiBiT (surrogate for HBV cccDNA),[3],up-regulated effects
O=C1c2c(O)cccc2Cc2cccc(O)c21 [Dithranol],cytotoxicity (CCK8),[4],no obvious cytotoxicity
same,cytotoxicity (CCK8),[5],no obvious cytotoxicity
COc1ccccc1N1CCN(CC(O)COc2cccc3ccccc23)CC1 (stereo not drawn) [Naftopidil],expression level of HiBiT (surrogate for HBV rcccDNA),[1],up-regulated effects
same,effect on HBeAg,[2]; [7],weak promotion effect
same,expression level of HiBiT (surrogate for HBV cccDNA),[3],up-regulated effects
"CC(C)OC(=O)OCOP(=O)(CO[C@H](C)Cn1cnc2c(N)ncnc21)OCOC(=O)OC(C)C [TDF, tenofovir disoproxil fumarate]",formation of cccDNA,[6],could inhibit the formation of cccDNA
CCCCCCCCCCCCCCCC[n+]1ccccc1 [Cetylpyridinium],cytotoxicity (CCK8),[4],no obvious cytotoxicity
same,cytotoxicity (CCK8),[5],no obvious cytotoxicity
CC[C@]1(O)C[C@H]2CN(CCc3c([nH]c4ccccc34)[C@@](C(=O)OC)(c3cc4c(cc3OC)N(C=O)[C@H]3[C@@](O)(C(=O)OC)[C@H](OC(C)=O)[C@]5(CC)C=CCN6CC[C@]43[C@@H]65)C2)C1 [Vincristine],expression level of HiBiT (surrogate for HBV rcccDNA),[1],up-regulated effects
same,effect on intracellular cccDNA,[2],up-regulate
same,effect on HBeAg,[2]; [7],weak promotion effect
same,expression level of HBsAg,[2]; [7],significantly up-regulate
same,expression level of HiBiT (surrogate for HBV cccDNA),[3],up-regulated effects
C[C@@H](Oc1cc(-c2cnn(C3CCNCC3)c2)cnc1N)c1c(Cl)ccc(F)c1Cl [Crizotinib],expression level of HiBiT (surrogate for HBV rcccDNA),[1],most significantly inhibited
same,cytotoxicity (CCK8),[4],no obvious cytotoxicity
same,cytotoxicity (CCK8),[5],no obvious cytotoxicity
C[C@H]1O[C@@H](n2cc(F)c(=O)[nH]c2=O)[C@H](O)[C@@H]1O [Doxifluridine],expression level of HiBiT (surrogate for HBV rcccDNA),[1],most significantly inhibited
same,cytotoxicity (CCK8),[4],no obvious cytotoxicity
same,cytotoxicity (CCK8),[5],no obvious cytotoxicity
same,effect on intracellular cccDNA,[2],significant inhibitory effect
CN1CCc2c(c3ccccc3n2Cc2ccccc2)C1 [Mebhydrolin],expression level of HiBiT (surrogate for HBV rcccDNA),[1],up-regulated effects
same,effect on intracellular cccDNA,[2],up-regulate
same,effect on HBeAg,[2]; [7],weak promotion effect
same,expression level of HiBiT (surrogate for HBV cccDNA),[3],up-regulated effects
O=C(O)c1cc(-c2ccccc2)nc2ccccc12 [Cinchophen],expression level of HiBiT (surrogate for HBV rcccDNA),[1],up-regulated effects
same,effect on intracellular cccDNA,[2],up-regulate
same,effect on HBeAg,[2]; [7],weak promotion effect
same,expression level of HiBiT (surrogate for HBV cccDNA),[3],up-regulated effects
N=C(N)NC(=O)Cc1c(Cl)cccc1Cl [Guanfacine],cytotoxicity (CCK8),[4],no obvious cytotoxicity
same,cytotoxicity (CCK8),[5],no obvious cytotoxicity
same,expression level of HiBiT (surrogate for HBV cccDNA),[3],most significantly inhibited
"CCOC(=O)C1=C(CN2CCOCC2)NC(c2nccs2)=NC1c1ccc(F)cc1Br (stereo not drawn) [Mor, Morphothiadin]",formation of cccDNA,[6],could inhibit the formation of cccDNA
same,expression level of HiBiT vs control group,[6]; cell supernatant,significantly lower than that in the control group
CC1(C)CCC(C)(C)c2cc(Cn3cccn3)c(/C=C/c3ccc(C(=O)O)cc3)cc21 [Palovarotene],expression level of HiBiT (surrogate for HBV rcccDNA),[1],most significantly inhibited
same,cytotoxicity (CCK8),[4],no obvious cytotoxicity
same,cytotoxicity (CCK8),[5],no obvious cytotoxicity
same,inhibition rate against HBsAg,[2]; [7],more than 60%
same,inhibitory effect on HBsAg,[2]; [7],relatively poor
same,inhibition rate against HBV cccDNA,"[2]; HepG2-hNTCP-2B1, intracellular, after 8 days of infection",more than 60%
same,expression level of HiBiT (surrogate for HBV cccDNA),[3],most significantly inhibited
